Converted amounts (≈) assume the structure as drawn.
What was measured:
[1] = tested on: P. aeruginosa; experiment: Checkerboard assay (antibiotic + adjuvant combination MIC); type: cell-based, Pseudomonas aeruginosa
[2] = tested on: P. aeruginosa PAO1 and efflux deficient mutants, MDR/XDR isolates; experiment: microbe, parasite or virus in culture; type: cell-based, Pseudomonas aeruginosa
Description: Antimicrobial Susceptibility Assay. The in vitro antimicrobial activity of all compounds/antibiotics against a panel of bacteria was evaluated by microbroth dilution method in accordance with the Clinical and Laboratory Standards Institute (CLSI) guidelines (using ATCC strains as quality control strains) (54). […] The broth with or without bacterial cells was used as positive or negative control, respectively.

[3] = tested on: panel of Gram-positive and Gram-negative bacteria; experiment: Antimicrobial susceptibility assay against a panel of bacteria; type: cell-based; details: some isolates
Description: (§1) Antimicrobial Susceptibility Assay. The in vitro antimicrobial activity of all compounds/antibiotics against a panel of bacteria was evaluated by microbroth dilution method in accordance with the Clinical and Laboratory Standards Institute (CLSI) guidelines (using ATCC strains as quality control strains) (54). Overnight grown bacterial cultures were diluted in saline to achieve a 0.5 McFarland turbidity, followed by 1:50 dilution in Mueller-Hinton broth (MHB) for inoculation to a final concentration of approximately 5×10^5 CFU/mL. […] The lowest concentration that prevented the visible growth of bacteria was defined as the MIC for each antimicrobial agent. The broth with or without bacterial cells was used as positive or negative control, respectively.

[4] = tested on: porcine erythrocytes
Description: Hemolytic Assay. The hemolytic activities of the newly synthesized compounds were determined and quantified as the amount of hemoglobin released by lysing porcine erythrocytes. […] The final cell concentration used was 3×10^8 cells/mL. Compounds were serially diluted with PBS and added to wells in a 96-well plate at twice the desired concentrations. […] Intact erythrocytes were subsequently pelleted by centrifuging at 1000 g at 4° C. for 10 mins, and the supernatants were transferred to a new 96-well plate. […] Blood cells in PBS (0% hemolysis) and 0.1% Triton X-100 (100% hemolysis) were used as negative and positive controls, respectively. Percent hemolysis was calculated as [% hemolysis=(X−0%)/(100%−0%)], where X is the optical density values of the compounds at different concentrations (49).

[5] = tested on: A. baumannii ATCC 17978 and resistant mutants; experiment: microbe, parasite or virus in culture; type: cell-based, Acinetobacter baumannii; details: Acinetobacter baumannii
Description: as §1
(§2) Development of Resistance Study. […] Tobramycin and colistin were included as controls. At 24-hour intervals, the cultures were assessed for growth. […] This serial passaging was repeated for 8 days.

[6] = tested on: MDR/XDR P. aeruginosa, Acinetobacter baumannii, Escherichia coli, Klebsiella pneumoniae, and Enterobacter cloacae; type: cell-based; details: tobramycin-susceptible and tobramycin-resistant Gram-negative bacteria strains
Description: Next, we investigated whether tobramycin by itself would potentiate novobiocin against Gram-negative bacteria.
Checkerboard Assay. Combination studies with different antibiotics were performed in 96-well plates as previously described (19). Briefly, the antibiotic of interest was serially diluted in MHB along the abscissa while the adjuvant (tobramycin homodimer) was serially diluted in MHB along the ordinate. This creates a 10×7 matrices wherein each well consists of a combination of different antibiotic and adjuvant concentrations. Overnight grown bacterial cultures were diluted in saline to achieve a 0.5 McFarland turbidity, followed by 1:50 dilution in Mueller-Hinton broth (MHB) for inoculation to a final concentration of approximately 5×10^5 CFU/mL. […] MIC was recorded as wells with the lowest concentration of drugs with no bacterial growth. The fractional inhibitory concentration (FIC) for each antibiotic was calculated by dividing the MIC of the antibiotic in the presence of adjuvant by the MIC of the antibiotic alone. Similarly, the FIC of adjuvant was calculated by dividing the MIC of the adjuvant in the presence of antibiotic by the MIC of the adjuvant alone. FIC index is the sum of both FICs. FIC indices of ≤0.5 were deemed synergistic; >0.5-4, no interaction; and >4, antagonistic.

[7] = tested on: P. aeruginosa PAO1; experiment: Outer membrane permeabilization assay (NPN uptake); type: cell-based, Pseudomonas aeruginosa
Description: Outer Membrane Permeabilization Assay. […] Briefly, an overnight grown P. aeruginosa PAO1 culture was subcultured (1 in 100) in fresh LB broth and grown to a mid-logarithmic phase (approximately 2 h, OD600=0.5-0.6). The cells were harvested by centrifuging for 10 min at 1000 g and room temperature, washed twice in PBS, and resuspended in half volume of PBS. This suspension was used in standard microtiter plate assay. […] PMBN, a known outer membrane permeabilizer, served as a positive control while cells +NPN (without test compounds) served as a negative control. Four independent replicates were conducted, and the data were corrected for any background fluorescence.

[8] = tested on: A. baumannii ATCC 17978; experiment: microbe, parasite or virus in culture; type: cell-based, Acinetobacter baumannii
Description: as §2

[9] = P. aeruginosa PAO1, compound at 8 μM
[10] = PA 262-101856, compound at 8 μM
[11] = PA 264-104354, compound at 8 μM
[12] = PA O200 (efflux-deficient), compound at 8 μM
[13] = PA O750 (efflux-deficient), compound at 8 μM
[14] = tobramycin-resistant MDR/XDR isolates

Compound: Cl.Cl.Cl.Cl.Cl.NC[C@H]1O[C@H](O[C@H]2[C@H](OCCCCCCCCCCCCN3CCN(c4cc5c(cc4F)c(=O)c(C(=O)O)cn5C4CC4)CC3)[C@@H](O)[C@H](N)C[C@@H]2N)[C@H](N)C[C@@H]1O [Compound 24]
- MIC of Aztreonam + compound [1, 9]: 0.5 µg/mL
- MIC of Ceftazidime + compound [1, 9]: 0.25 µg/mL
- MIC of Imipenem + compound [1, 9]: 1 µg/mL
- MIC of Piperacillin + compound [1, 9]: 2 µg/mL
- MIC of ATM in the presence of compound ([1]; PA 259-96918, compound at 8 μM): 8 µg/mL
- MIC of CAZ in the presence of compound ([1]; PA 259-96918, compound at 8 μM): 128 µg/mL
- MIC of IPM in the presence of compound ([1]; PA 259-96918, compound at 8 μM): 16 µg/mL
- MIC of ATM in the presence of compound ([1]; PA 260-97103, compound at 8 μM): 0.25 µg/mL
- MIC of CAZ in the presence of compound ([1]; PA 260-97103, compound at 8 μM): 0.25 µg/mL
- MIC of IPM in the presence of compound ([1]; PA 260-97103, compound at 8 μM): 2 µg/mL
- MIC of ATM in the presence of compound [1, 10]: 16 µg/mL
- MIC of CAZ in the presence of compound [1, 10]: 4 µg/mL
- MIC of IPM in the presence of compound [1, 10]: 8 µg/mL
- MIC of ATM in the presence of compound [1, 11]: 16 µg/mL
- MIC of CAZ in the presence of compound [1, 11]: 64 µg/mL
- MIC of IPM in the presence of compound [1, 11]: 8 µg/mL
- MIC of ATM in the presence of compound ([1]; PA 86052, compound at 8 μM): 4 µg/mL
- MIC of CAZ in the presence of compound ([1]; PA 86052, compound at 8 μM): 4 µg/mL
- MIC of IPM in the presence of compound ([1]; PA 86052, compound at 8 μM): 4 µg/mL
- MIC of ATM in the presence of compound ([1]; PA 88949, compound at 8 μM): 8 µg/mL
- MIC of CAZ in the presence of compound ([1]; PA 88949, compound at 8 μM): 32 µg/mL
- MIC of IPM in the presence of compound ([1]; PA 88949, compound at 8 μM): 64 µg/mL
- MIC of ATM in the presence of compound ([1]; PA 91433, compound at 8 μM): 8 µg/mL
- MIC of CAZ in the presence of compound ([1]; PA 91433, compound at 8 μM): 0.5 µg/mL
- MIC of IPM in the presence of compound ([1]; PA 91433, compound at 8 μM): 8 µg/mL
- MIC of ATM in the presence of compound ([1]; PA 100036, compound at 8 μM): 8 µg/mL
- MIC of CAZ in the presence of compound ([1]; PA 100036, compound at 8 μM): 4 µg/mL
- MIC of IPM in the presence of compound ([1]; PA 100036, compound at 8 μM): 4 µg/mL
- MIC of ATM in the presence of compound ([1]; PA 101243, compound at 8 μM): 0.25 µg/mL
- MIC of CAZ in the presence of compound ([1]; PA 101243, compound at 8 μM): 4 µg/mL
- MIC of IPM in the presence of compound ([1]; PA 101243, compound at 8 μM): 4 µg/mL
- MIC of ATM in the presence of compound ([1]; PA 101885, compound at 8 μM): 4 µg/mL
- MIC of CAZ in the presence of compound ([1]; PA 101885, compound at 8 μM): 4 µg/mL
- MIC of IPM in the presence of compound ([1]; PA 101885, compound at 8 μM): 2 µg/mL
- MIC of ATM in the presence of compound ([1]; PA 107092, compound at 8 μM): 32 µg/mL
- MIC of CAZ in the presence of compound ([1]; PA 107092, compound at 8 μM): 64 µg/mL
- MIC of IPM in the presence of compound ([1]; PA 107092, compound at 8 μM): 16 µg/mL
- MIC of ATM in the presence of compound ([1]; PA 108590, compound at 8 μM): 0.13 µg/mL
- MIC of CAZ in the presence of compound ([1]; PA 108590, compound at 8 μM): 1 µg/mL
- MIC of IPM in the presence of compound ([1]; PA 108590, compound at 8 μM): 0.5 µg/mL
- MIC of ATM in the presence of compound ([1]; PA 109084, compound at 8 μM): 32 µg/mL
- MIC of CAZ in the presence of compound ([1]; PA 109084, compound at 8 μM): 32 µg/mL
- MIC of IPM in the presence of compound ([1]; PA 109084, compound at 8 μM): 8 µg/mL
- MIC of ATM in the presence of compound ([1]; PA 114228, compound at 8 μM): 8 µg/mL
- MIC of CAZ in the presence of compound ([1]; PA 114228, compound at 8 μM): 4 µg/mL
- MIC of IPM in the presence of compound ([1]; PA 114228, compound at 8 μM): 1 µg/mL
- MIC of ATM in the presence of compound [1, 12]: 0.03 µg/mL
- MIC of CAZ in the presence of compound [1, 12]: 0.13 µg/mL
- MIC of IPM in the presence of compound [1, 12]: 1 µg/mL
- MIC of ATM in the presence of compound [1, 13]: 0.13 µg/mL
- MIC of CAZ in the presence of compound [1, 13]: 0.01 µg/mL
- MIC of IPM in the presence of compound [1, 13]: 2 µg/mL
- MIC of ATM in the presence of compound ([1]; PAO1, compound at 8 μM): 0.5 µg/mL
- MIC of CAZ in the presence of compound ([1]; PAO1, compound at 8 μM): 0.25 µg/mL
- MIC of IPM in the presence of compound ([1]; PAO1, compound at 8 μM): 1 µg/mL
- MIC ([2]; PA0750 (efflux-deficient)): 2 µg/mL
- MIC ([2]; PAO1 (wild-type)): 32 µg/mL
- MIC ([2]; PAO200 (first column so headed)): 4 µg/mL
- MIC ([2]; PAO200 (second column so headed)): 2 µg/mL
- intrinsic antimicrobial activity [3]: some modest residual activity

Compound: NC[C@H]1O[C@H](O[C@H]2[C@H](OCCCCCCn3cc(CCCCO[C@@H]4[C@@H](O[C@H]5O[C@H](CO)[C@@H](O)[C@H](N)[C@H]5O)[C@H](N)C[C@H](N)[C@H]4O[C@H]4O[C@H](CN)[C@@H](O)C[C@H]4N)nn3)[C@@H](O[C@H]3O[C@H](CO)[C@@H](O)[C@H](N)[C@H]3O)[C@H](N)C[C@@H]2N)[C@H](N)C[C@@H]1O.O=C(O)C(F)(F)F.O=C(O)C(F)(F)F.O=C(O)C(F)(F)F.O=C(O)C(F)(F)F.O=C(O)C(F)(F)F.O=C(O)C(F)(F)F.O=C(O)C(F)(F)F.O=C(O)C(F)(F)F.O=C(O)C(F)(F)F.O=C(O)C(F)(F)F [Compound 2, Tobramycin Homodimer 2]
- hemolysis of porcine erythrocytes [4]: non-hemolytic

Compound: NC[C@H]1O[C@H](O[C@H]2[C@H](O)[C@@H](O[C@H]3O[C@H](CO)[C@@H](O)[C@H](N)[C@H]3O)[C@H](N)C[C@@H]2N)[C@H](N)C[C@@H]1O [Tobramycin]
- interaction with antibiotics (checkerboard) ([1]; PAO1, all antibiotics tested except tobramycin, vancomycin and colistin): not synergistic
- FICI with ceftazidime or aztreonam [1, 14]: 0.56-0.75
- tobramycin concentration at which synergy with imipenem was observed [1, 14]: ≥ 100 µM
- FICI with aztreonam, ceftazidime and imipenem ([1]; tobramycin-susceptible MDR isolates): 0.75
- FICI with aztreonam, ceftazidime and imipenem ([1]; wildtype P. aeruginosa): 0.75-1.00
- MIC ([2]; Pseudomonas aeruginosa): 1 µg/mL (≈ 2.14 µM)
- MIC ([2]; Pseudomonas aeruginosa, PAO200 (first column so headed)): 1 µg/mL (≈ 2.14 µM)
- MIC ([2]; Pseudomonas aeruginosa, PAO200 (second column so headed)): 1 µg/mL (≈ 2.14 µM)
- MIC ([5]; ATCC17978, 18 h, Mutant C (seven serial passages, sub-MICs novobiocin + 7.1 μM compound 1)): 1 µg/mL
- MIC ([5]; ATCC17978, Mutant A (seven serial passages, sub-MICs novobiocin)): 1 µg/mL (≈ 2.14 µM)
- MIC ([5]; ATCC17978, Mutant B (seven serial passages, sub-MICs colistin)): 0.25 µg/mL (≈ 0.535 µM)
- MIC ([5]; ATCC17978, Wild-type A. baumannii ATCC 17978): 1 µg/mL (≈ 2.14 µM)
- FICI with novobiocin [6]: 0.75
- outer membrane permeabilization (NPN fluorescence) [7]: weak fluorescence
- MIC ([8]; Acinetobacter baumannii, ATCC17978, 168 h, read-out: MIC after serial passaging): 512 µg/mL (≈ 1100 µM)
- fold change in MIC ([8]; after 7 days of serial passaging): 512 fold

— patent US20220249441A1, “Homodimeric Tobramycin Adjuvant Repurposes Novobiocin as an Effective Antibacterial Agent Against Gram-Negative Bacteria” (priority 2019, published 2022)
